Data as given in ChEMBL document CHEMBL4825753 (J Med Chem, 2021).
The source made the active and inactive calls. The rule behind the calls is not given here.

Columns and labels:
[1] = biological target: T1, Tyrosine-protein kinase receptor UFO (Homo sapiens, UniProt P30530); experiment: Inhibition of FLAG-tagged AXL (unknown origin) transfected in Cos-7 cells assessed as phosphorylation level incubated for 1 hr by ELISA; format: cell-based
T1 sequence (P30530 whole entry): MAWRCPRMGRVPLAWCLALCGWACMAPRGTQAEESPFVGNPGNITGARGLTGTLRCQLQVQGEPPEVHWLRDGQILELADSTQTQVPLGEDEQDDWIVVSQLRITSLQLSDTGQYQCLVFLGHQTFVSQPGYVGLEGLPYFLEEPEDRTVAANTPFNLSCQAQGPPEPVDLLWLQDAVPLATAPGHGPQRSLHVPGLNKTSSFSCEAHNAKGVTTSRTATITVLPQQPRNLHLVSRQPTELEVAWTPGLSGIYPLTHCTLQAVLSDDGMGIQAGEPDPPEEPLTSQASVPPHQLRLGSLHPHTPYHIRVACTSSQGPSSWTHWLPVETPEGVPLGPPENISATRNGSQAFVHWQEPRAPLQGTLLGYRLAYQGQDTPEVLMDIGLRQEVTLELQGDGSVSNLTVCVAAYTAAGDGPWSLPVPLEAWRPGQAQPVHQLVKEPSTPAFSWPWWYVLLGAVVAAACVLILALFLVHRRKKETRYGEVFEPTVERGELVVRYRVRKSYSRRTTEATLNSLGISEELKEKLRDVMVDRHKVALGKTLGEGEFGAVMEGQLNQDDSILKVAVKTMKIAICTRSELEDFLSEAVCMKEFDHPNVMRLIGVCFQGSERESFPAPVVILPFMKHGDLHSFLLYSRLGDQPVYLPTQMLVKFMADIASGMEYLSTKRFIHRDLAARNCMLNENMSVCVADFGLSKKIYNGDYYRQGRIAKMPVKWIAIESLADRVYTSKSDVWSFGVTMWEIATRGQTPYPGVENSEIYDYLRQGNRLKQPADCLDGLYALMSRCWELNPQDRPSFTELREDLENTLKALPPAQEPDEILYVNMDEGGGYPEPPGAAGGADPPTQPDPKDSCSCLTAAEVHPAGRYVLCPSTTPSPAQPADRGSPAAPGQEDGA

[2] = biological target: T2, Receptor-type tyrosine-protein kinase FLT3 (Homo sapiens, UniProt P36888); experiment: Inhibition of FLAG-tagged FLT3 (unknown origin) transfected in Cos-7 cells assessed as phosphorylation level incubated for 1 hr by ELISA; format: cell-based
T2 sequence (P36888 whole entry): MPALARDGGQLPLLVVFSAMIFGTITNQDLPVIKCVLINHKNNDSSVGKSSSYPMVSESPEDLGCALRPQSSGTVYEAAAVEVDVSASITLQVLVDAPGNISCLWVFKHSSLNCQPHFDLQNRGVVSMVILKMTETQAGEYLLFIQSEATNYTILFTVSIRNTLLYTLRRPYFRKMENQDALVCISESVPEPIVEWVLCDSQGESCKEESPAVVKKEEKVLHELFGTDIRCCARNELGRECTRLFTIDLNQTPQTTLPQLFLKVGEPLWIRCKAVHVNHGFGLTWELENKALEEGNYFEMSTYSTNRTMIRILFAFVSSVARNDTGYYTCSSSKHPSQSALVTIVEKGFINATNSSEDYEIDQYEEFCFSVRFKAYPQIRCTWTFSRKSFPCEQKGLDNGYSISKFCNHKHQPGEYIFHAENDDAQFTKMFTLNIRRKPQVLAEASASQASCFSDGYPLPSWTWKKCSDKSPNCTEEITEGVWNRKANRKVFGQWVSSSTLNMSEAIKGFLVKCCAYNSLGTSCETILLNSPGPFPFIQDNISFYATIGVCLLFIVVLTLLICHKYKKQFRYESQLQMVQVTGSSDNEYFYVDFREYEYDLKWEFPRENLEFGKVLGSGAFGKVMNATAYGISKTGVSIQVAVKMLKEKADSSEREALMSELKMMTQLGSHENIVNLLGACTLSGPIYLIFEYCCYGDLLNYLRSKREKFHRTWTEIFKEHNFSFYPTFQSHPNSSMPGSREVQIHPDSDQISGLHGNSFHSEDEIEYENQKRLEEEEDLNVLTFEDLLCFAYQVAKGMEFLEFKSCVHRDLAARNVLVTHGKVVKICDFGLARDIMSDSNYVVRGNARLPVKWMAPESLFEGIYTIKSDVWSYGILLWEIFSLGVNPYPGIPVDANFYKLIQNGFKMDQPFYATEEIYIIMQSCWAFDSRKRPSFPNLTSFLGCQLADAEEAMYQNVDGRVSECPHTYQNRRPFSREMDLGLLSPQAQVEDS

[3] = Lipophilicity, log D of the compound at pH 7.4; format: physicochemical; settings: buffer
[4] = biological target: T3, Tyrosine-protein kinase receptor TYRO3 (Homo sapiens, UniProt Q06418); experiment: Inhibition of FLAG-tagged Tyro3 (unknown origin) transfected in Cos-7 cells assessed as phosphorylation level incubated for 1 hr by ELISA; format: cell-based
T3 sequence (Q06418 whole entry): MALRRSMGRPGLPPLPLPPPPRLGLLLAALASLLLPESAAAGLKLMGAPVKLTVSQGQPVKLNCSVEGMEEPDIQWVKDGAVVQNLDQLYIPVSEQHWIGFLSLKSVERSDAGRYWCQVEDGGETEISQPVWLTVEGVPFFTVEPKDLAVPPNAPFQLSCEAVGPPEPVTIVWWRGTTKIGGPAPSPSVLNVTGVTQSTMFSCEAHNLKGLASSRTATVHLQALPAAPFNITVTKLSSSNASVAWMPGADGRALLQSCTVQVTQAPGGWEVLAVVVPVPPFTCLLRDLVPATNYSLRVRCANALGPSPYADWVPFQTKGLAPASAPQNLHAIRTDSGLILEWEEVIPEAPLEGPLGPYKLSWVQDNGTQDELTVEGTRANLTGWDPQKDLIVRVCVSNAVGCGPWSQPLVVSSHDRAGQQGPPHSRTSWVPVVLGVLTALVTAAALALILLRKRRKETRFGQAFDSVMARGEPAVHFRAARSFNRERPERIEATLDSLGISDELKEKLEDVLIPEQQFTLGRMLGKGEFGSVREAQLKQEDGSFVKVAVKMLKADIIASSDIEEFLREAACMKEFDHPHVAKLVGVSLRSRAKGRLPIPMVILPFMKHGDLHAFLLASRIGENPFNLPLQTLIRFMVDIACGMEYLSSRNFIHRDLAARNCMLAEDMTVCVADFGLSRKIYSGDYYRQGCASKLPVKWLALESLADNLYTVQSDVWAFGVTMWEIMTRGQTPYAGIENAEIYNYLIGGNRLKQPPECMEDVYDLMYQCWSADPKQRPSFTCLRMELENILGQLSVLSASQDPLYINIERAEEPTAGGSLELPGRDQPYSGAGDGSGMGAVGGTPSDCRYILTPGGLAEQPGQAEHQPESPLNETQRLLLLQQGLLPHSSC

[5] = Induction efferocytosis in human PBMC assessed as CD14-positive monocytes
[6] = Photostability of compound assessed as half life; format: physicochemical
[7] = system: BaF3; experiment: Growth inhibition of mouse BaF3 cells transfected with MER assessed as inhibition of cell growth incubated for 72 hrs by Cell-titer-Glo assay; format: functional
[8] = system: BaF3; experiment: Growth inhibition of mouse BaF3 cells transfected with AXL assessed as inhibition of cell growth incubated for 72 hrs by Cell-titer-Glo assay; format: functional
[9] = system: BaF3; experiment: Growth inhibition of mouse BaF3 cells transfected with FLT3 assessed as inhibition of cell growth incubated for 72 hrs by Cell-titer-Glo assay; format: functional
[10] = system: BaF3; experiment: Growth inhibition of mouse BaF3 cells transfected with Tyro3 assessed as inhibition of cell growth incubated for 72 hrs by Cell-titer-Glo assay; format: functional
[11] = system: BaF3; experiment: Growth inhibition of mouse BaF3 cells assessed as inhibition of cell growth incubated for 72 hrs by Cell-titer-Glo assay; format: functional
[12] = system: BaF3; experiment: Antitumour activity against mouse BaF3 cells transfected with MER implanted in C57BL/6J mouse assessed as reduction in tumour growth at 3 to 100 mg/kg, po bid for 6 days; format: functional, organism-based; settings: dose 3-100 mg/kg, time 6.0 day
[13] = system: BaF3; experiment: Antitumour activity against mouse BaF3 cells transfected with AXL implanted in C57BL/6J mouse assessed as reduction in tumour growth at 100 mg/kg, po bid for 6 days; format: functional, organism-based; settings: time 6.0 day
[14] = Fraction unbound in C57BL/6J mouse implanted with mouse BaF3 cells transfected with MER in at 3 to 100 mg/kg, po bid for 6 days; format: ADME, organism-based; settings: in vivo, dose 3-100 mg/kg, time 6 day
[15] = Fraction unbound in C57BL/6J mouse implanted with mouse BaF3 cells transfected with AXL in at 3 to 100 mg/kg, po bid for 6 days; format: ADME, organism-based; settings: in vivo, dose 3-100 mg/kg, time 6 day
[16] = system: BaF3; experiment: Antitumour activity against mouse BaF3 cells transfected with MER implanted in C57BL/6J mouse assessed as reduction in MER phosphorylation at 30 to 100 mg/kg, po bid for 6 days by western blot analysis; format: functional, organism-based; settings: dose 30-100 mg/kg, time 6.0 day
[17] = system: BaF3; experiment: Antitumour activity against mouse BaF3 cells transfected with AXL implanted in C57BL/6J mouse assessed as reduction in AXL phosphorylation at 30 to 100 mg/kg, po bid for 6 days western blot analysis; format: functional, organism-based; settings: dose 30-100 mg/kg, time 6.0 day
[18] = system: MC-38; experiment: Antitumour activity against mouse MC38 cells implanted in C57BL6 mouse assessed as increase in survival at 100 mg/kg, po bid for 2 weeks co-treatment with anti-PD1 further treated with ionizing radiation; format: functional, organism-based

SMILES | IC50 [1] | IC50 [2] | logD [3] | IC50 [4] | pIC50 [5] | half-life [6] | also measured
Cc1cc(-c2c(C)nn(C)c2C)cnc1-c1nnc(N(C)Cc2ccc3ncc(-c4ccc(CN(C)C)nc4)n3c2)o1 | 1.58 µM | > 31.6 µM | 2.5 | > 31.6 µM |  |  | 
Cc1cc(-c2c(C)nn(C)c2C)cnc1-c1nnc(N(C)Cc2ccc3ncc(-c4cccc(CN(C)C)c4)n3c2)o1 | 0.316 µM | > 31.6 µM | 3 | > 31.6 µM | 7 |  | 
Cc1cc(-c2c(C)nn(C)c2C)ccc1-c1nnc(N(C)Cc2ccc3ncc(-c4ccccc4)n3c2)o1 | 0.2 µM | 7.94 µM | 5.3 | 20 µM | 6.7 | 11.4 days | 
Cc1cc(-c2c(C)nn(C)c2C)cnc1-c1nnc(N(C)Cc2ccc3ncc(-c4ccc(CN(C)C)cn4)n3c2)o1 | 0.126 µM | 25.1 µM | 3 | > 31.6 µM | 7.2 |  | 
CN1CCN(Cc2ccc(-c3ccc(CO[C@H]4CCC[C@@H]4NC(=O)c4cc(-c5cnn(C)c5)cnc4N)cc3)cc2)CC1 |  | 10 µM | 2.8 |  |  |  | GI50 [7]: 0.00794 µM; GI50 [8]: 0.0501 µM; GI50 [9]: 5.01 µM; GI50 [10]: 3.16 µM; GI50 [11]: 12.6 µM; Activity [12]: Active; Activity [13]: Active; fraction unbound at 144 h [14]: 0.14; fraction unbound at 144 h [15]: 0.14; Activity [16]: Active; Activity [17]: Active; Activity [18]: Active
Cc1cc(-c2c(C)nn(C)c2C)ccc1-c1nnc(N(C)Cc2ccc3ncc(-c4cnn(CCN(C)C)c4)n3c2)o1 | 0.126 µM | > 31.6 µM | 3.5 | 12.6 µM | 7.8 |  | 
Cc1cc(-c2c(C)nn(C)c2C)ccc1-c1nnc(N(C)Cc2ccc3ncc(-c4cnn(C)c4)n3c2)o1 | 0.0631 µM | 12.6 µM | 4 | 12.6 µM | 7.2 | 11.4 days | 
Cc1cc(-c2c(C)nn(C)c2C)ccc1-c1nnc(N(C)Cc2ccc3ncc(C4CCN(C)CC4)n3c2)o1 | 1.26 µM | > 31.6 µM | 2.5 | > 31.6 µM | 6.9 |  | 
Cc1cc(-c2c(C)nn(C)c2C)ccc1-c1nnc(N(C)Cc2ccc3ncc(C(=O)N(C)C)n3c2)o1 | 0.398 µM | 10 µM | 3.3 | 25.1 µM | 7.1 | 17.8 days | 
Cc1cc(-c2c(C)nn(C)c2C)cnc1-c1nnc(N(C)Cc2ccc3ncc(-c4cnn(CCN(C)C)c4)n3c2)o1 | 1 µM | > 31.6 µM | 2.7 | > 31.6 µM | 7.1 |  | 
